According to patent US6469033B1, “Use of 1-hydroxy-2-pyridones for the treatment of skin diseases” (Aventis Pharma Deutschland GmbH, priority 1996, dated 2002):
In brackets after ≈: the same amount, converted by molar mass. Read-outs that look alike come from different tables or passages of the source.

Experiments:
Propionibacterium acnes = experiment: Agar dilution MIC, anaerobic bacteria (Wilkins-Chalgren agar); type: cell-based
Description: (§1) The lowest concentration at which growth was no longer to be observed was designated as the MIC.
In vitro activity of 1-hydroxy-4-methyl-6-cyclohexyl-2(1H)pyridone against anaerobic bacteria (the testing was carried out in an agar dilution test using Wilkins-Chalgren agar (Oxoid).

[1] = test system: S. aureus, ofloxacin-resistant, OFX^r; experiment: Agar dilution MIC, aerobic bacteria (Mueller-Hinton agar); type: cell-based, Staphylococcus aureus; conditions: 16 strains, number in brackets = strains with that MIC, 24 hours at 37° C.
Description: (§2) Determination of the antibacterial activity of 1-hydroxy-4-methyl-6-cyclohexyl-2(1H)pyridone to skin-pathogenic gram-positive and gram-negative aerobic bacteria.
(§3) The minimal inhibitory concentration (MIC) was determined in an agar dilution test in Mueller-Hinton agar. The active compound was first dissolved in dimethyl sulfoxide at 10% strength and then diluted to twice the amount in each case in equal stages with agar so that in the end effect concentrations between 128 μg/ml and 1 μg/ml were obtained. Overnight cultures of the bacterial strains to be tested were diluted with liquid medium and employed as inoculum. The bacterial suspensions (1×10^5 cfu/ml) were applied to the surface of the active compound-containing agar plates. With the exception of the methicillin-resistant strains of Staphylococcus aureus (MRSA) and Staphylococcus epidermidis (MRSE), the MIC values were read off after 24 hours at 37° C.(MRSA and MRSE: 48 hours at 30° C.).
as §1
(§4) Using known methods, the antibiotic-resistant bacteria investigated can be isolated from patients or from hospitals in which antibiotic resistance has been found. The other bacterial species mentioned can be isolated easily by a person skilled in the art on account of their species and generic name or ordered from a strain collection.

Enterobacter cloacae = experiment: as above; type: cell-based; conditions: 1 strain, 24 hours at 37° C.
Description: as §2, §3, §1, §4

Strept. faecium = experiment: as above; type: cell-based; conditions: Enterococcus faecium; 1 strain; 24 hours at 37° C.
Description: as §2, §3, §1, §4

Strept. equisimilis = experiment: as above; type: cell-based; conditions: Streptococcus dysgalactiae; 1 strain; 24 hours at 37° C.
Description: as §2, §3, §1, §4

Pseudomonas aeruginosa = experiment: as above; type: cell-based; conditions: 5 strains, 24 hours at 37° C.
Description: as §2, §3, §1, §4

Enterobacter aerogenes = experiment: as above; type: cell-based; conditions: Klebsiella aerogenes; 1 strain; 24 hours at 37° C.
Description: as §2, §3, §1, §4

[2] = test system: S. epidermidis, ofloxacin-resistant, OFX^r; experiment: as above; type: cell-based; conditions: Staphylococcus epidermidis; 4 strains; 24 hours at 37° C.
Description: as §2, §3, §1, §4

Streptococcus pyogenes = experiment: as above; type: cell-based; conditions: 20 strains, 24 hours at 37° C.
Description: as §2, §3, §1, §4

[3] = test system: Strept. faecium, vancomycin-resistant, VAN^r; experiment: as above; type: cell-based; conditions: Enterococcus faecium; 1 strain; 24 hours at 37° C.
Description: as §2, §3, §1, §4

Strept. agalactiae = experiment: as above; type: cell-based; conditions: Streptococcus agalactiae; 9 strains; 24 hours at 37° C.
Description: as §2, §3, §1, §4

Proteus vulgaris = experiment: as above; type: cell-based; conditions: 3 strains, number in brackets = strains with that MIC, 24 hours at 37° C.
Description: as §2, §3, §1, §4

[4] = test system: S. epidermidis, methicillin-resistant, MRSE; experiment: as above; type: cell-based; conditions: Staphylococcus epidermidis, 2 strains, 48 hours at 30° C.
Description: as §2, §3, §1, §4

Strept. durans = experiment: as above; type: cell-based; conditions: Enterococcus durans, 24 h, 10 strains; number in brackets = strains with that MIC; 24 hours at 37° C.
Description: as §2, §3, §1, §4

[5] = test system: Staphylococcus epidermidis; experiment: as above; type: cell-based; conditions: 20 strains, 24 hours at 37° C.
Description: as §2, §3, §1, §4

Staphylococcus aureus = experiment: as above; type: cell-based; conditions: 20 strains, read after 24 hours at 37° C.
Description: as §2, §3, §1, §4

[6] = test system: S. aureus, methicillin-resistant MRSA; experiment: as above; type: cell-based; conditions: Staphylococcus aureus, 19 strains, read after 48 hours at 30° C.
Description: as §2, §3, §1, §4

Klebsiella pneumoniae = experiment: as above; type: cell-based; conditions: 2 strains, number in brackets = strains with that MIC, 24 hours at 37° C.
Description: as §2, §3, §1, §4

Escherichia coli = experiment: as above; type: cell-based; conditions: 3 strains, 24 hours at 37° C.
Description: as §2, §3, §1, §4

Strept. faecalis = experiment: as above; type: cell-based; conditions: 3 strains, number in brackets = strains with that MIC, 24 hours at 37° C.
Description: as §2, §3, §1, §4

Propionibacteria = conditions: acne patients pretreated with antibiotics; cited from earlier work
[7] = test system: Staphylococcus epidermidis; conditions: acne patients pretreated with antibiotics; cited from earlier work
enterococci = conditions: isolates from various centers; cited from earlier work

Cc1cc(C2CCCCC2)n(O)c(=O)c1 [1-hydroxy-4-methyl-6-cyclohexyl-2(1H)pyridone]
MIC (Propionibacterium acnes; Cutibacterium acnes, DSM20458, Strain DSM 20458, read-out: MIC): 32 µg/mL (≈ 154 µM) | MIC (Propionibacterium acnes; Cutibacterium acnes, Strain 6919, read-out: MIC): 32 µg/mL (≈ 154 µM) | MIC (Propionibacterium acnes; Strain 6922): 32.0 µg/mL (≈ 154 µM) | MIC (Propionibacterium acnes; Strain 15549): 32.0 µg/mL (≈ 154 µM) | MIC [1]: 128 µg/mL (≈ 618 µM) | MIC ([1]; Staphylococcus aureus, 24 h, read-out: MIC): 64 µg/mL (≈ 309 µM) | MIC (Enterobacter cloacae): 128 µg/mL (≈ 618 µM) | MIC (Strept. faecium): 128 µg/mL (≈ 618 µM) | MIC (Strept. equisimilis): 128 µg/mL (≈ 618 µM) | MIC (Pseudomonas aeruginosa): 128 µg/mL (≈ 618 µM) | MIC (Enterobacter aerogenes): 128 µg/mL (≈ 618 µM) | MIC [2]: 64 µg/mL (≈ 309 µM) | MIC (Streptococcus pyogenes): 64 µg/mL (≈ 309 µM) | MIC [3]: 32 µg/mL (≈ 154 µM) | MIC (Strept. agalactiae): 128 µg/mL (≈ 618 µM) | MIC (Proteus vulgaris): 64 µg/mL (≈ 309 µM) | MIC (Proteus vulgaris; Proteus vulgaris, 24 h, read-out: MIC): 32 µg/mL (≈ 154 µM) | MIC [4]: 64 µg/mL (≈ 309 µM) | MIC (Strept. durans): 64 µg/mL (≈ 309 µM) | MIC [5]: 128 µg/mL (≈ 618 µM) | MIC (Staphylococcus aureus): 64 µg/mL (≈ 309 µM) | MIC [6]: 64 µg/mL (≈ 309 µM) | MIC (Klebsiella pneumoniae): 128 µg/mL (≈ 618 µM) | MIC (Klebsiella pneumoniae; Klebsiella pneumoniae, 24 h, read-out: MIC): 64 µg/mL (≈ 309 µM) | MIC (Escherichia coli): 64 µg/mL (≈ 309 µM) | MIC (Strept. faecalis): 128 µg/mL (≈ 618 µM) | MIC (Strept. faecalis; Enterococcus faecalis, 24 h, read-out: MIC): 64 µg/mL (≈ 309 µM)

CC[C@H]1OC(=O)[C@H](C)[C@@H](O[C@H]2C[C@@](C)(OC)[C@@H](O)[C@H](C)O2)[C@H](C)[C@@H](O[C@@H]2O[C@H](C)C[C@H](N(C)C)[C@H]2O)[C@](C)(O)C[C@@H](C)C(=O)[C@H](C)[C@@H](O)[C@]1(C)O [erythromycin]
resistances found, share of the cases (Propionibacteria): 36% | resistances found, share of the cases [7]: 90%

gentamycin
resistances, share of isolates (enterococci): up to 50%
